# Experimental data published in PMC3664202 (Bioorganic & medicinal chemistry letters, 2012).
# Columns and labels:
# [1] = system: delayed type hypersensitivity (DTH) and allergic contact dermatitis (ACD); settings: Lewis rats; dosed orally, by i.p. injection or topically; cited from earlier work
# [2] = cited from earlier work
# [3] = system: psoriasis and other inflammatory skin conditions; settings: small clinical trial; cited from earlier work
# [4] = molecular target: Kv1.3 channels (Mus musculus, UniProt P16390); assay: Kv1.3 blockade, manual whole-cell patch-clamp; assay type: cell-based; settings: for decrease in Kv1.3 blocking activity/potency relative to diphenoxylate: fold less potent than diphenoxylate
# Kv1.3 channels, sequence (P16390 whole entry): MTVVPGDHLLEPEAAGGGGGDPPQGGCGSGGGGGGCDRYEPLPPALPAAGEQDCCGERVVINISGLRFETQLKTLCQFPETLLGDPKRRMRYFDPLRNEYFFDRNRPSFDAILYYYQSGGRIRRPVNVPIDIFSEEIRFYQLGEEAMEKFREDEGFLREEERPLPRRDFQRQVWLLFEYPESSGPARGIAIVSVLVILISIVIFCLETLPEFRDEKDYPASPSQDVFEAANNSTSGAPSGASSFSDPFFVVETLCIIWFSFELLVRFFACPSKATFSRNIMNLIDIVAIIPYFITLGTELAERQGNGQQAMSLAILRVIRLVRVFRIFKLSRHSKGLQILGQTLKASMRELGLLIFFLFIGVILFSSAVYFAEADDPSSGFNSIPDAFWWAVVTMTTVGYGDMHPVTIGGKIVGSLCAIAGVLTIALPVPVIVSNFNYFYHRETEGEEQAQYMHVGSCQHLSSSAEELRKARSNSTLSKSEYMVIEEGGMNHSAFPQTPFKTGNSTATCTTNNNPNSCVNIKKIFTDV
# [5] = system: adoptive transfer and chronic relapsing experimental autoimmune encephalomyelitis (EAE); settings: rats; cited from earlier work
compound,measurement,setting,value
O=c1ccc2c(OCCCCOc3ccccc3)c3ccoc3cc2o1 [PAP-1],effect on DTH and ACD,[1],suppress delayed type hypersensitivity (DTH) and allergic contact dermatitis (ACD)
same,oral availability,[2],25%
"CCOC(=O)C1(c2ccccc2)CCN(CCC(C#N)(c2ccccc2)c2ccccc2)CC1 [Compound 1, Diphenoxylate]",clinical effect on psoriasis and other inflammatory skin conditions,[3],successfully treat psoriasis and other inflammatory skin conditions
"CCOC(=O)C1(c2ccccc2)CCN(CCC(c2ccccc2)c2ccccc2)CC1 [Compound 7, Ethyl 1-(3,3-diphenylpropyl)-4-phenylpiperidine-4-carboxylate]",more active than diphenoxylate (Kv1.3 blockade),[4]; fold more active than diphenoxylate,6 fold
"N#CC(CCN1CCCCC1)(c1ccccc1)c1ccccc1 [Compound 8, 2,2-diphenyl-4-(piperidin-1-yl)butanenitrile]",decrease in Kv1.3 blocking activity/potency relative to diphenoxylate,[4],4 fold
ShK,effect on EAE,[5],able to treat both adoptive transfer and chronic relapsing experimental autoimmune encephalomyelitis (EAE)
"CCOC(=O)C1CCN(CCC(C#N)(c2ccccc2)c2ccccc2)CC1 [Compound 6, Ethyl 1-(3-cyano-3,3-diphenylpropyl)piperidine-4-carboxylate]",decrease in Kv1.3 blocking activity/potency relative to diphenoxylate,[4],~ 50 fold
"OC1CCN(CCCc2ccccc2)CC1 [Compound 17, 1-(3-phenylpropyl)piperidin-4-ol]",IC50,[4],> 100 µM
same,Kv1.3 blocking activity (in words),[4]; removal of a cyano group plus a phenyl ring from 14,no activity
"N#CC(CCN1CCCC(O)C1)(c1ccccc1)c1ccccc1 (stereo not shown) [Compound 15, 4-(3-hydroxypiperidin-1-yl)-2,2-diphenylbutanenitrile]",IC50,[4],> 100 µM
